# Assays:
# [1] = test system: histamine-induced vascular permeability in mouse ears; experiment: Modified Miles assay: histamine-induced vascular hyperpermeability (Evans blue extravasation); type: in vivo, mouse (C57BL/6); conditions: 400 μg histamine, no pretreatment
# Method: Fifteen (15) minutes after the intracutaneous injection, a vehicle (80% acetone) or histamine (400 μg, manufactured by Molecular Probes) was percutaneously administered to the ventral surface of the ears. To evaluate vascular permeability, Evans blue (50 mg/kg, manufactured by Sigma) was injected intravenously 5 minutes after the administration of histamine. The mice were then euthanized by cervical dislocation 30 minutes after the injection of Evans blue. The ears were dissected, dried at 55° C., and weighed. Extravasated Evans blue present in the ears was extracted in formamide (manufactured by Molecular Probes), and quantified spectrophotometrically (manufactured by PerkinElmer Japan Co., Ltd.) at a wavelength of 610 nm.
# [2] = test system: ear vessels of the mice; experiment: In vivo microscopy of ear vessels: FITC-dextran leakage and vascular diameter after histamine; design: species or system mouse; conditions: histamine 400 μg by instillation, no pretreatment
# Method: To visualize the ear vessels of the mice, 70 kDa fluorescein isothiocyanate-dextran (10 mg/kg, manufactured by Sigma-Aldrich) was injected intravenously. Then, immediately after the administration of fluorescein isothiocyanate-dextran, 5,6-DiHETE (0.1 μg) was administered by instillation (percutaneously administered) as a pretreatment, and this group of mice was designated as a “5,6-DiHETE-administered group.” As a control group, a group of mice not administered with 5,6-DiHETE was designated as a “[…]-administered group”. Then, 15 minutes after the administration by instillation, histamine (400 μg) was administered by instillation (percutaneously administered) into the ventral surface of the ears for both the groups. Next, the mice were placed on the stage of a microscope confocal microscope (ECLIPSE Ti with C1 confocal system, manufactured by Nikon Corporation), and their body temperatures were maintained at 37° C. Dextran leakage and vascular diameter in the ears were monitored every minute in a period from 0 to 30 minutes after the administration of histamine using EZ-C1 Free Viewer (manufactured by Nikon Corporation), and the dextran leakage, artery diameter and vein diameter were quantified according to the description of Omori, K. et al., British Journal of Pharmacology, 171:4879-4889 (2014). It is known that smooth muscle contraction reduces the downstream blood flow and limits the vascular leakage, whereas smooth muscle relaxation (increase of vascular diameter) increases the blood flow, thereby leading to vascular leakage.
# [3] = test system: HUVECs; experiment: Endothelial barrier function: transendothelial electrical resistance (TER); type: cell-based, human; conditions: histamine 10 μM, no pretreatment
# Method: (§1) In Examples 4 to 6, human umbilical vein endothelial cells (hereinafter, sometimes referred to as “HUVECs”, manufactured by Lonza) were cultured in EGM-2 (manufactured by Lonza K.K.). These cells (passages 4 to 9) were used for experiments after 4-hour starvation in EBM-2 (manufactured by Lonza K.K.) containing 2% FBS.
# The in vitro endothelial barrier function was evaluated by measuring the transendothelial electrical resistance (hereinafter, sometimes referred to as “TER”) of the HUVECs prepared in the above item (1) over time. Specifically, the transendothelial electrical resistance was measured using an xCELLigence Real-Time Cell Analyzer DP system (manufactured by Roche). The system monitors changes in TER across an interdigitated microelectrode at the bottom of tissue culture E-plates (manufactured by Roche). The HUVECs (8,000 cells) were plated on the E-plates and incubated until confluent. Then, the following operation (a) or (b) was performed.
# (a) Each reagent was added to plates on which the HUVECs were cultured, so as to give a vehicle, 1 U/mL thrombin, 1 μM forskolin, or 0.1 μM or 0.3 μM 5,6-DiHETE (FIGS. 4A and 4B).
# (b) A vehicle or […] was added to plates on which the HUVECs were cultured, so as to attain 10 μM. […] Thirty (30) minutes after the addition, 10 μM histamine was added to each plate 30 minutes after the addition (FIGS. 4C and 4D).
# In the above operations (a) and (b), the TER was measured every 60 seconds. For normalization, the cell index value at each time point is shown as a ratio relative to the initial value. The maximum normalized cell index after stimulation was quantified and represented as maximal response. Note that it is known that the disruption of the endothelial barrier function lowers the TER, but that the enhancement of the endothelial barrier function increases the TER.
# [4] = test system: NO production in HUVECs; experiment: Histamine-induced NO production (nitrite and nitrate); type: cell-based, human; conditions: histamine 10 μM, no pretreatment
# Method: as §1
# The HUVECs were washed three times with HEPES and incubated in HEPES supplemented with 1 mM L-arginine and 10 μM tetrahydrobiopterin. After equilibration for 30 minutes, the medium was exchanged, and the cells were incubated for additional 30 minutes. […] The conditioned media before and after the stimulation (100 μL each) were collected and centrifuged in each amount of 300 g for 3 minutes. The supernatants were collected, and used to measure nitrite and nitrate, as stable metabolites of NO, by an ENO-20 NOx analyzer (manufactured by Eicom Corporation). The degrees of increases of nitrite and nitrate levels after the stimulation were normalized with cellular protein contents.
# [5] = test system: calcium ion concentration in HUVECs; experiment: Histamine-induced increase of calcium ion concentration (fura-2); type: cell-based, human; conditions: histamine 10 μM, no pretreatment
# Method: These cells (passages 4 to 9) were used for experiments after 4-hour starvation in EBM-2 (manufactured by Lonza K.K.) containing 2% FBS.
# HUVECs were incubated with a calcium fluorescence indicator (3 μg fura-2/AM containing 0.11% Cremophor EL) for 30 minutes and washed with an HEPES buffer three times. […] Then, 5 minutes after the addition of each reagent, histamine was added so as to attain 10 μM. In addition, a group to which histamine was added so as to attain 10 μM without pretreatment was also prepared. A cover slip was placed in a specialized airtight chamber mounted onto the stage of a microscope maintained at 37° C. The HUVECs were excited at 340 nm and 380 nm and the emitted fluorescence signal was measured every 3 seconds at 510 nm for 60 seconds. The fluorescence ratio (R:F340/F380) was determined using a fluorescence imaging system (AQUACOSMOS, manufactured by Hamamatsu Photonics K.K.). After the experiment, 1 μM ionomycin was added and the fluorescence changes were measured in the presence of 0 or 1.5 mM calcium ions. The calcium ion concentration was indicated as A fluorescence ratio. AUC was calculated 1 minute after each stimulus to evaluate the A fluorescence ratio. It is known that the increase of calcium ion concentration in endothelial cells promotes NO production by eNOS phosphorylation and […] smooth muscle cells (Garcia-Cardena, G. et al., Nature, 392: 821-824(1998); and Luo, Z. et al., The Journal of clinical investigation, 106: 493-499(2000)).
# [6] = test system: anaphylaxis model mice; experiment: Histamine-induced anaphylaxis: blood pressure and body temperature; type: in vivo, mouse (C57BL/6); conditions: 30 minutes after histamine 50 mg/kg intravenously, no pretreatment
# Method: Histamine (50 mg/kg) lysed in a physiological saline solution was intravenously administered to C57BL/6 strain mice (male, 8 to 12 weeks old) to prepare anaphylaxis model mice (hereinafter, sometimes referred to as “anaphylaxis group”). […] L-NAME is an NO synthesis inhibitor. As indices of anaphylactic symptoms, a body temperature decrease and a blood pressure decrease were observed.
compound,measurement,setting,value
"NCCc1c[nH]cn1 [histamine, reference compound]",blue dye extravasation (Evans blue) in ear,[1],0.14 ± 0.02 µg/mg
same,artery diameter as compared with arteries nonstimulated with histamine,[2],178±13%
same,"TER, minimum (normalized cell index)",[3],0.82±0.05 fold
same,NO production,[4],0.31±0.06 pmol/μg protein
same,"calcium ion concentration, AUC at 1 minute after stimulation",[5],12.2±2.1
same,body temperature decrease,[6],−2.2±0.3 °C

# Source: patent US12285434B2, “Therapeutic, preventive, or improvement agent for inflammatory disease and allergic disease” (The University of Tokyo, priority 2018, dated 2025)
